Assay results published in article PMC11923874, “Integration of Phytomelatonin Signaling With Jasmonic Acid in Wound‐induced Adventitious Root Regeneration” (Advanced Science, 2025).
pKd: −log10 of the molar value.

Columns and labels:
SlPMTR1 = molecular target: T1, SlPMTR1; assay: microscale thermophoresis (GFP fusion); assay type: binding, Solanum lycopersicum; settings: 22 °C, 30 min incubation; His-MBP-GFP fusion protein at 1 mg/ml
T1 construct: 6xHis-MBP-SlPMTR1-GFP fusion, pMAL-c2, E. coli Rosetta (DE3), Ni-NTA purified; seven-transmembrane protein; native length 300 residues (fragments 1-134 and 135-300); tags kept

SlPMTR2 = molecular target: T2, SlPMTR2 (Solanum lycopersicum, UniProt A0A3Q7GXJ6); assay: microscale thermophoresis (GFP fusion); assay type: binding
T2 construct: gene LOC101260652; 6xHis-MBP-SlPMTR2-GFP fusion, pMAL-c2, E. coli Rosetta (DE3), Ni-NTA purified; seven-transmembrane protein; native length 309 residues (fragments 1-140 and 141-309); tags kept
T2 sequence (A0A3Q7GXJ6 1-309): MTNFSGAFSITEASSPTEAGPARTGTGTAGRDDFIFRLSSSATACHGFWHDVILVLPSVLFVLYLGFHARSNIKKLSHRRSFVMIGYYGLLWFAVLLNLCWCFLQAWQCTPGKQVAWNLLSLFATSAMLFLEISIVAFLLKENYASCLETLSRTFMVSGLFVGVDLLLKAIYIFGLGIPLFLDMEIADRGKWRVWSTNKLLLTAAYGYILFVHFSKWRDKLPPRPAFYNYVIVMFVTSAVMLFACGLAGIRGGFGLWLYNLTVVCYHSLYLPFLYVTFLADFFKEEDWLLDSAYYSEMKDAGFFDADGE

Compound: COc1ccc2[nH]cc(CCNC(C)=O)c2c1 [melatonin]
- pKd (SlPMTR1): 7.30
- pKd (SlPMTR2): 6.38
